Reference: patent publication US10174060B2, “Process for purifying monooctylin trichloride” (CHEMTURA CORPORATION, priority 2014, dated 2019)

What was measured:
[1] = Extraction of mono-n-octyltin trichloride from organic phase into aqueous aluminum chloride phase, dependence on chloride concentration (Example 4); type: physicochemical; conditions: stepwise dilution with deionized water
Description: A mixture was prepared, consisting by weight of 55.7% mono-n-octyltin trichloride, 10.7% di-n-butyl ether, 26.2% n-heptane, 7.3% AlCl3. 10 g of this mixture were transferred into a graduated glass cylinder.
Portions of deionized water were added stepwise to the system, and the volume changes of organic and aqueous phase were noted. Volume decrease of the organic phase indicates extraction of monooctyltin into the aqueous phase.

[2] = Extraction of mono-n-octyltin trichloride from organic phase into aqueous hydrochloric acid phase, dependence on chloride concentration (Example 5); type: physicochemical; conditions: stepwise dilution with deionized water
Description: 20.3 g of mono-n-octyltin trichloride, 3.9 g of di-n-butyl ether and 9.5 g of n-heptane were mixed to give of clear and homogeneous solution. 8.6 g (7.4 mL) of a 32% aqueous HCl solution were added. The mixture was stirred for ca. 10 minutes, and then transferred into a graduated glass cylinder. 2 phases appeared; they were allowed to settle.
Portions of deionized water were added stepwise to the system, and the volume changes of organic and aqueous phases were noted. Volume decrease of the organic phase indicates extraction of monooctyltin into the aqueous phase.

[3] = Extraction of mono-n-octyltin trichloride into aqueous aluminum chloride phase, dependence on temperature (Example 6); type: physicochemical; conditions: 30 minutes settling, 20 g mixture (18.5 mL) plus 8.4 g deionized water
Description: A mixture was prepared, consisting by weight of 55.7% mono-n-octyltin trichloride, 10.7% di-n-butyl ether, 26.2% n-heptane, 7.3% AlCl3. To 20 g of this mixture (having a volume of 18.5 mL), 8.4 g of deionized water were added under stirring, and the resulting mixture was placed into a graduated glass cylinder.
The temperature in the glass cylinder was adjusted to 20° C., and the phases were allowed to settle and separate for 30 minutes. The resulting volume of the organic phase was 8 mL.
Subsequently, the temperature in the glass cylinder was adjusted to 40° C., and the phases were allowed to settle and separate for 30 minutes. The resulting volume of the organic phase was 10 mL.
Subsequently, the temperature in the glass cylinder was adjusted to 60° C., and the phases were allowed to settle and separate for 30 minutes. The resulting volume of the organic phase was 14 mL.

[4] = Extraction of mono-n-octyltin trichloride with aqueous sodium chloride phase (Example 7); type: physicochemical; conditions: 16 mL organic mixture, 2.5 g saturated NaCl solution plus 5 g deionized water, 45° C.
Description: 10.15 g of mono-n-octyltin trichloride, 1.95 g of di-n-butyl ether and 4.75 g of n-heptane were mixed to give of clear and homogeneous solution. […] 2.5 g of a saturated NaCl solution was were added. The mixture was stirred for ca. 10 minutes, and then transferred into a graduated glass cylinder. Phase separation could not be observed, because a suspension had formed. When further 5 g of deionized water were added and the mixture was heated to 45° C., 2 phases appeared. When they had settled, it became visible, that the volume of the organic phase was reduced from 16 mL to ca. 8 mL, indicating extraction of monooctyltin trichloride into the aqueous phase. Upon cooling to room temperature, the lower aqueous phase solidified.

[5] = cited from earlier work

Compound | aqueous aluminum chloride concentration at which extraction becomes particularly efficient [1] | HCl concentration at which extraction becomes particularly efficient [2] | volume of the organic phase ([3]; 20° C.) | volume of the organic phase ([3]; 40° C.) | volume of the organic phase ([3]; 60° C.) | volume of the organic phase after extraction [4] | solubility in water [5]
CCCCCCC[CH2][Sn]([Cl])([Cl])[Cl] [mono-n-octyltin trichloride] | ≤ 17% | approx. 16% | 8 mL | 10 mL | 14 mL | ca. 8 mL | practically insoluble
CCC[CH2][Sn]([Cl])([Cl])[Cl] [monobutyltin trichloride] |  |  |  |  |  |  | miscible
CCCCCCC[CH2][Sn]([Cl])([Cl])[CH2]CCCCCCC [dioctyltin dichloride] |  |  |  |  |  |  | practically insoluble
CCCCCCC[CH2][Sn]([Cl])([CH2]CCCCCCC)[CH2]CCCCCCC [trioctyltin chloride] |  |  |  |  |  |  | practically insoluble
